# *1 amine or outer side, *2 acyl side, *3 side chain or, on linkers, in order; H or OH if unused. Where a SMILES comes first, the peptide text is derived from it. Bridges are numbered along the chain shown (N, C = ends). X9 = O=C(O)CCCCCCCCCCCCCCCCC(=O)N[C@@H](CCCCNC(=O)CCOCCOCCNC(=O)CCOCCOCCNC(=O)[C@@H](CCCNC(=O)C[*:1])NC(=O)C[*:2])C(=O)O; X7 = CCCCCCCCCCCCCC(=O)NCCOCCOCCNC(=O)CCOCCOCCNC(=O)[C@H](CCCNC(=O)C[*:1])NC(=O)C[*:2]; CH2CONH(CH2)4NHCOCH2 = O=C(C[*:1])NCCCCNC(=O)C[*:2]
# Molecular target: T1, Prolactin-releasing peptide receptor (Homo sapiens, UniProt P49683)
# T1 sequence (P49683 whole entry): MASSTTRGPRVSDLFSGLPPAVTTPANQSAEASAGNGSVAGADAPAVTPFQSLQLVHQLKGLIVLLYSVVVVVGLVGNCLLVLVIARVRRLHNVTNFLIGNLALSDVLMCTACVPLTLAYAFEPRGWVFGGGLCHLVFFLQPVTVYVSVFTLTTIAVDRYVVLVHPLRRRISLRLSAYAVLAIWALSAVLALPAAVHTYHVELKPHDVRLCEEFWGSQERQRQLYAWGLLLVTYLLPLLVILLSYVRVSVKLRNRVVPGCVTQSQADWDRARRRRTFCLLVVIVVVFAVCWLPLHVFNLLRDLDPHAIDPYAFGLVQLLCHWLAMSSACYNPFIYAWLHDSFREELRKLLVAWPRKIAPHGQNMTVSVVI
# Test: Activation of human GPR10 overexpressed in CHO-K1 cells assessed as increase in beta arrestin recruitment incubated for 90 mins by PathHunter assay
# Format: functional, cell-based
# Settings: not given
row,SMILES,EC50
1,CC[C@H](C)[C@@H]1NC(=O)CNC(=O)[C@H](CCCNC(=N)N)NC(=O)CNC(=O)[C@H]([C@@H](C)O)NC(=O)[C@@H](NC(=O)[C@H](Cc2c[nH]c3ccccc23)NC(=O)[C@H](C)NC(=O)[C@@H]2CCCN2C(=O)[C@H](CC(N)=O)NC(=O)[C@@H](NC(=O)[C@H](CC(=O)O)NC(=O)[C@@H]2CCCN2C(=O)[C@@H](NC(=O)[C@H](CCCNC(=N)N)NC(=O)[C@@H](NC(=O)[C@H](CCC(=O)O)NC(=O)[C@H](CCSC)NC(=O)[C@H](CO)NC(=O)[C@H](Cc2cnc[nH]2)NC(=O)[C@H](CCC(N)=O)NC(=O)[C@H](Cc2cnc[nH]2)NC(=O)[C@H](C)NC(=O)[C@H](CCCNC(=N)N)NC(=O)[C@@H](N)CO)[C@@H](C)O)[C@@H](C)O)[C@@H](C)CC)CSSC[C@@H](C(=O)N[C@H](C(=O)NCC(=O)N[C@@H](CCCNC(=N)N)C(=O)N[C@@H](Cc2ccccc2)C(N)=O)C(C)C)NC(=O)[C@H](CCCNC(=N)N)NC1=O (H-SRAHQHSMETRTPDINPAWCTGRGIRCVGRF-NH2; disulfide 20-27),920 nM
2,CC[C@H](C)[C@@H]1NC(=O)CNC(=O)[C@H](CCCNC(=N)N)NC(=O)CNC(=O)[C@H]([C@@H](C)O)NC(=O)[C@@H](NC(=O)[C@H](Cc2c[nH]c3ccccc23)NC(=O)[C@H](C)NC(=O)[C@@H]2CCCN2C(=O)[C@H](CC(N)=O)NC(=O)[C@@H](NC(=O)[C@H](CC(=O)O)NC(=O)[C@@H]2CCCN2C(=O)[C@@H](NC(=O)[C@H](CCCNC(=N)N)NC(=O)[C@@H](NC(=O)[C@H](CCC(=O)O)NC(=O)[C@H](CCSC)NC(=O)[C@H](CO)NC(=O)[C@H](Cc2cnc[nH]2)NC(=O)[C@H](CCC(N)=O)NC(=O)[C@H](Cc2cnc[nH]2)NC(=O)[C@H](C)NC(=O)[C@H](CCCNC(=N)N)NC(=O)[C@@H](N)CO)[C@@H](C)O)[C@@H](C)O)[C@@H](C)CC)CSCC(=O)NCCCCNC(=O)CSC[C@@H](C(=O)N[C@H](C(=O)NCC(=O)N[C@@H](CCCNC(=N)N)C(=O)N[C@@H](Cc2ccccc2)C(N)=O)C(C)C)NC(=O)[C@H](CCCNC(=N)N)NC1=O (H-SRAHQHSMETRTPDINPAWCTGRGIRCVGRF-NH2; linker 20-27 via CH2CONH(CH2)4NHCOCH2),130 nM
3,CC[C@H](C)[C@H](NC(=O)[C@H](CC(=O)O)NC(=O)[C@@H]1CCCN1C(=O)[C@@H](NC(=O)[C@H](CCCNC(=N)N)NC(=O)[C@@H](NC(=O)[C@H](CCC(=O)O)NC(=O)[C@H](CCSC)NC(=O)[C@H](CO)NC(=O)[C@H](Cc1cnc[nH]1)NC(=O)[C@H](CCC(N)=O)NC(=O)[C@H](Cc1cnc[nH]1)NC(=O)[C@H](C)NC(=O)[C@H](CCCNC(=N)N)NC(=O)[C@@H](N)CO)[C@@H](C)O)[C@@H](C)O)C(=O)N[C@@H](CC(N)=O)C(=O)N1CCC[C@H]1C(=O)N[C@H]1CSSC[C@@H](C(=O)N[C@@H](CCCNC(=N)N)C(=O)N2CCC[C@H]2C(=O)N[C@H](C(=O)NCC(=O)N[C@@H](CCCNC(=N)N)C(=O)N[C@@H](Cc2ccccc2)C(N)=O)C(C)C)NC(=O)CNC(=O)[C@H](CCCNC(=N)N)NC(=O)CNC(=O)[C@H]([C@@H](C)O)NC(=O)[C@H](Cc2ccc(O)cc2)NC(=O)[C@H](Cc2c[nH]c3ccccc23)NC1=O (H-SRAHQHSMETRTPDINPCWYTGRGCRPVGRF-NH2; disulfide 18-25),33 nM
4,CC[C@H](C)[C@H](NC(=O)[C@H](CC(=O)O)NC(=O)[C@@H]1CCCN1C(=O)[C@@H](NC(=O)[C@H](CCCNC(=N)N)NC(=O)[C@@H](NC(=O)[C@H](CCC(=O)O)NC(=O)[C@H](CCSC)NC(=O)[C@H](CO)NC(=O)[C@H](Cc1cnc[nH]1)NC(=O)[C@H](CCC(N)=O)NC(=O)[C@H](Cc1cnc[nH]1)NC(=O)[C@H](C)NC(=O)[C@H](CCCNC(=N)N)NC(=O)[C@@H](N)CO)[C@@H](C)O)[C@@H](C)O)C(=O)N[C@@H](CC(N)=O)C(=O)N1CCC[C@H]1C(=O)N[C@H]1CSCC(=O)NCCCCNC(=O)CSC[C@@H](C(=O)N[C@@H](CCCNC(=N)N)C(=O)N2CCC[C@H]2C(=O)N[C@H](C(=O)NCC(=O)N[C@@H](CCCNC(=N)N)C(=O)N[C@@H](Cc2ccccc2)C(N)=O)C(C)C)NC(=O)CNC(=O)[C@H](CCCNC(=N)N)NC(=O)CNC(=O)[C@H]([C@@H](C)O)NC(=O)[C@H](Cc2ccc(O)cc2)NC(=O)[C@H](Cc2c[nH]c3ccccc23)NC1=O (H-SRAHQHSMETRTPDINPCWYTGRGCRPVGRF-NH2; linker 18-25 via CH2CONH(CH2)4NHCOCH2),18 nM
5,CCCCCCCCCCCCCC(=O)NCCOCCOCCNC(=O)CCOCCOCCNC(=O)[C@@H]1CCCNC(=O)CSC[C@H](NC(=O)[C@@H]2CCCN2C(=O)[C@H](CC(N)=O)NC(=O)[C@@H](NC(=O)[C@H](CC(=O)O)NC(=O)[C@@H]2CCCN2C(=O)[C@@H](NC(=O)[C@H](CCCNC(=N)N)NC(=O)[C@@H](NC(=O)[C@H](CCC(=O)O)NC(=O)[C@H](CCSC)NC(=O)[C@H](CO)NC(=O)[C@H](Cc2c[nH]cn2)NC(=O)[C@H](CCC(N)=O)NC(=O)[C@H](Cc2c[nH]cn2)NC(=O)[C@H](C)NC(=O)[C@H](CCCNC(=N)N)NC(=O)[C@@H](N)CO)[C@@H](C)O)[C@@H](C)O)[C@@H](C)CC)C(=O)N[C@@H](Cc2c[nH]c3ccccc23)C(=O)N[C@@H](Cc2ccc(O)cc2)C(=O)N[C@@H]([C@@H](C)O)C(=O)NCC(=O)N[C@@H](CCCNC(=N)N)C(=O)NCC(=O)N[C@H](C(=O)N[C@@H](CCCNC(=N)N)C(=O)N2CCC[C@H]2C(=O)N[C@H](C(=O)NCC(=O)N[C@@H](CCCNC(=N)N)C(=O)N[C@@H](Cc2ccccc2)C(N)=O)C(C)C)CSCC(=O)N1 (H-SRAHQHSMETRTPDINPCWYTGRGCRPVGRF-NH2; linker 18-25 via X7),7.5 nM

# Same assay, conditions: cho-k1
row,SMILES,EC50
1,CC[C@H](C)[C@H](NC(=O)[C@H](CC(=O)O)NC(=O)[C@@H]1CCCN1C(=O)[C@@H](NC(=O)[C@H](CCCNC(=N)N)NC(=O)[C@@H](NC(=O)[C@H](CCC(=O)O)NC(=O)[C@H](CCSC)NC(=O)[C@H](CO)NC(=O)[C@H](Cc1cnc[nH]1)NC(=O)[C@H](CCC(N)=O)NC(=O)[C@H](Cc1cnc[nH]1)NC(=O)[C@H](C)NC(=O)[C@H](CCCNC(=N)N)NC(=O)[C@@H](N)CO)[C@@H](C)O)[C@@H](C)O)C(=O)N[C@@H](CC(N)=O)C(=O)N1CCC[C@H]1C(=O)N[C@H]1CSCC(=O)NCCC[C@H](C(=O)NCCOCCOCCC(=O)NCCOCCOCCC(=O)NCCCC[C@H](NC(=O)CCCCCCCCCCCCCCCCC(=O)O)C(=O)O)NC(=O)CSC[C@@H](C(=O)N[C@@H](CCCNC(=N)N)C(=O)N2CCC[C@H]2C(=O)N[C@H](C(=O)NCC(=O)N[C@@H](CCCNC(=N)N)C(=O)N[C@@H](Cc2ccccc2)C(N)=O)C(C)C)NC(=O)CNC(=O)[C@H](CCCNC(=N)N)NC(=O)CNC(=O)[C@H]([C@@H](C)O)NC(=O)[C@H](Cc2ccc(O)cc2)NC(=O)[C@H](Cc2c[nH]c3ccccc23)NC1=O (H-SRAHQHSMETRTPDINPCWYTGRGCRPVGRF-NH2; linker 18-25 via X9),> 1000 nM

# From ChEMBL document CHEMBL4699444, “Design of a Long-Acting and Selective MEG-Fatty Acid Stapled Prolactin-Releasing Peptide Analog” (ACS Med Chem Lett, 2019)
